In patent US7211572B2 (Japan Tobacco Inc., priority 2003, dated 2007):
Where a name gives a salt, the structure may show the parent alone.

Target: T1, HIV integrase (Human immunodeficiency virus type 1 group M subtype B, UniProt P12497, F1332H)
T1 construct: HIV integrase full length gene; made in house; host or cells: Escherichia coli BL21(DE3), plasmid pET21a-INH
Assay: Determination of enzyme (HIV integrase) inhibitory activity
Assay type: biochemical
Settings: recombinant HIV integrase (F185H), strand transfer ELISA, absorbance at 450 nm
Outline: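 Full-length integrase with F185H, expressed in E. coli and purified, was reacted for 60 min at 37 °C with compound and biotinylated donor DNA bound to streptavidin plates. Target DNA was added for 10 min, then anti-digoxigenin-peroxidase detection at A450; IC50 from % inhibition versus enzyme-free blank.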

Row | SMILES | IC50 [nM]
1 | CS(=O)(=O)c1ccc(CNC(=O)c2cn3c(c(O)c2=O)C(=O)N(Cc2ccc(F)cc2)CC3)cc1 [Example 421, N-(4-methanesulfonylbenzyl)-2-(4-fluorobenzyl)-9-hydroxy-1,8-dioxo-1,3,4,8-tetrahydro-2H-pyrido[1,2-a]pyrazine-7-carboxamide hydrochloride] | 10 to 100
2 | CC(C)(C)C(O)Cc1cc(=O)c(O)c2n1CCN(Cc1ccc(F)cc1)C2=O (stereo not drawn) [Example 422, 2-(4-fluorobenzyl)-9-hydroxy-6-(2-hydroxy-3,3-dimethylbutyl)-3,4-dihydro-2H-pyrido[1,2-a]pyrazine-1,8-dione hydrochloride] | 10 to 100
3 | CC(=O)Nc1cn2c(C)cn(Cc3cccc(Cl)c3)c(=O)c2c(O)c1=O [Example 423, N-[2-(3-chlorobenzyl)-9-hydroxy-4-methyl-1,8-dioxo-1,8-dihydro-2H-pyrido[1,2-a]pyrazin-7-yl]acetamide] | 10 to 100
4 | COCc1c(-c2ccccn2)c(=O)c(O)c2n1CCN(Cc1ccc(F)cc1)C2=O [Example 424, 2-(4-fluorobenzyl)-9-hydroxy-6-methoxymethyl-7-(pyridin-2-yl)-3,4-dihydro-2H-pyrido[1,2-a]pyrazine-1,8-dione hydrochloride] | 10 to 100
5 | COCC(C)(C)C(=O)c1cn2ccn(Cc3ccc(F)cc3)c(=O)c2c(O)c1=O [Example 425, 2-(4-fluorobenzyl)-9-hydroxy-7-(3-methoxy-2,2-dimethylpropionyl)-2H-pyrido[1,2-a]pyrazine-1,8-dione hydrochloride] | < 10
6 | COc1ccnc(CNC(=O)c2cn3c(c(O)c2=O)C(=O)N(Cc2ccc(F)cc2)CC3)n1 [Example 426, N-(4-methoxypyrimidin-2-ylmethyl)-2-(4-fluorobenzyl)-9-hydroxy-1,8-dioxo-1,3,4,8-tetrahydro-2H-pyrido[1,2-a]pyrazine-7-carboxamide hydrochloride] | 10 to 100
7 | CC(C)(C)C(=O)Cc1c(C(=O)C(C)(C)C)c(=O)c(O)c2n1CCN(Cc1ccc(F)cc1)C2=O [Example 427, 6-(3,3-dimethyl-2-oxobutyl)-7-(2,2-dimethylpropionyl)-2-(4-fluorobenzyl)-9-hydroxy-3,4-dihydro-2H-pyrido [1,2-a]pyrazine-1,8-dione hydrochloride] | 10 to 100
8 | CC(=O)Nc1ccc(CNC(=O)c2cn3c(c(O)c2=O)C(=O)N(Cc2ccc(F)cc2)CC3)cc1 [Example 428, N-(4-acetylaminobenzyl)-2-(4-fluorobenzyl)-9-hydroxy-1,8-dioxo-1,3,4,8-tetrahydro-2H-pyrido[1,2-a]pyrazine-7-carboxamide] | 10 to 100
9 | O=c1ccn2c(CCO)cn(Cc3ccc(Cl)c(Cl)c3)c(=O)c2c1O [Example 429, 2-(3,4-dichlorobenzyl)-9-hydroxy-4-(2-hydroxyethyl)-2H-pyrido[1,2-a]pyrazine-1,8-dione hydrochloride] | 10 to 100
10 | CCC(O)c1cn(Cc2ccc(Cl)c(Cl)c2)c(=O)c2c(O)c(=O)ccn12 (stereo not drawn) [Example 430, 2-(3,4-dichlorobenzyl)-9-hydroxy-4-(1-hydroxypropyl)-2H-pyrido[1,2-a]pyrazine-1,8-dione] | 10 to 100
11 | O=c1ccn2c(CCCO)cn(Cc3ccc(Cl)c(Cl)c3)c(=O)c2c1O [Example 431, 2-(3,4-dichlorobenzyl)-9-hydroxy-4-(3-hydroxypropyl)-2H-pyrido[1,2-a]pyrazine-1,8-dione] | 10 to 100
12 | CC(C)C(O)c1cn(Cc2ccc(Cl)c(Cl)c2)c(=O)c2c(O)c(=O)ccn12 (stereo not drawn) [Example 432, 2-(3,4-dichlorobenzyl)-9-hydroxy-4-(1-hydroxy-2-methylpropyl)-2H-pyrido[1,2-a]pyrazine-1,8-dione] | < 10
